Measurements: US20230008368A1, “IMIDAZOQUINOLINE SUBSTITUTED PHOSPHORIC ESTER AGONIST, AND PREPARATION THEREFOR AND APPLICATION THEREOF” (SUZHOU ZELGEN BIOPHARMACEUTICALS CO., LTD., priority 2019, published 2023)

Assays:
hTLR8 = molecular target: T1, hTLR8 (Homo sapiens, UniProt Q9NR97); assay: agonistic activity on hTLR8, HEK-Blue hTLR cells, SEAP reporter (QUANTI-Blue); format: cell-based; conditions: HEK-Blue hTLR cells, SEAP reporter, OD650, cultured 1 day; read-out: TLR 8 EC50
T1 construct: expressed in transfected cells; host or cells: HEK-Blue hTLR cells
T1 sequence (Q9NR97 27-1041): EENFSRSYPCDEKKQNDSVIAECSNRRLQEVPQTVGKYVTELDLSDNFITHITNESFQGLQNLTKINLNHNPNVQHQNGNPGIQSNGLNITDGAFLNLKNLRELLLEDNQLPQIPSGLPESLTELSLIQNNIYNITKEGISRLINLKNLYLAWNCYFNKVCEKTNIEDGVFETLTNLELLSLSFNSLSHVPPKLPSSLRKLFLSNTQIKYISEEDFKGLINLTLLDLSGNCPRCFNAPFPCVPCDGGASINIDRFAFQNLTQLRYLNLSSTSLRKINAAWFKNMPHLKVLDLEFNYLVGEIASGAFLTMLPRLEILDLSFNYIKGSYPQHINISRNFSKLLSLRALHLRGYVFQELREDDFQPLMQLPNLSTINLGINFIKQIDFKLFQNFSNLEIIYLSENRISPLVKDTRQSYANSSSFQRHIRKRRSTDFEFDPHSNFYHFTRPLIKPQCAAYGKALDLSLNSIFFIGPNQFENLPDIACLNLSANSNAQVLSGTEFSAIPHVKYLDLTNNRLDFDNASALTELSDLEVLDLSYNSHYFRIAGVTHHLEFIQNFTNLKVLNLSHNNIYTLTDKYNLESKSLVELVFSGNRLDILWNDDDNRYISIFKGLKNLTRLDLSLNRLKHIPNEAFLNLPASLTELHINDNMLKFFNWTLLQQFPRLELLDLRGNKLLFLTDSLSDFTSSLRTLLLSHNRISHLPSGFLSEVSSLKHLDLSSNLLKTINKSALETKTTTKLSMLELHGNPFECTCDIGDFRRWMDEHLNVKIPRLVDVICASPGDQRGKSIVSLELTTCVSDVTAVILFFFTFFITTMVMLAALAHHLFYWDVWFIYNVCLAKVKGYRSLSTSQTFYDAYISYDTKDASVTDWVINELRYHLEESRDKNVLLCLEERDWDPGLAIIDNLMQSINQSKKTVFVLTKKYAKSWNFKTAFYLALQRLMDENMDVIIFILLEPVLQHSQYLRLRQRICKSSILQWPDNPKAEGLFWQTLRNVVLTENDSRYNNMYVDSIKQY
Experimental: Experiments on the agonistic activity of TLR7 and TLR8 by the compounds in vitro
(§1) The compound was diluted with 1:3 series with DMSO for 9 concentration points, duplicated wells, and added to 96-well plate with Echo.
(§2) The HEK-Blue™ hTLR cells were suspended in the culture medium and then seeded into a 96-well plate containing the compound at a density of 50,000 cells/well. Cells were cultured at 5% CO2 and 37° C. for 1 day. The final concentration of DMSO in the cell culture medium was 0.5%.
20 uL cell culture supernatant was taken, according to the QUANTI-Blue instructions, the reporter gene SEAP in the supernatant was detected, and the OD650 signal value was read with a microplate reader to calculate the agonist activity of the compound on the hTLR7 and hTLR8.
(§3) The EC50 and CC50 values of the compound were calculated by GraphPad Prism software, and the fitting curve was plotted.

[1] = cytotoxicity, cell viability by CellTiter-Glo; format: cell-based, human; conditions: human, HEK-Blue hTLR cells, cultured 1 day
Experimental: as §1, §2
According to the CellTiter-Glo instructions, the cell viability was measured, and the Luminescence signal value was read by the microplate reader, which was used to calculate the cytotoxicity of the compound.
as §3

SMILES	EC50 (hTLR8) [µM]	CC50 at 1 day [1] [µM]
CCOCc1nc2c(N)nc3ccccc3c2n1C[C@@H](C)O[P@](=O)(N[C@@H](C)C(=O)OC(C)C)Oc1ccc2ccccc2c1 (single isomer, unassigned) [Example 6B]	0.023	> 30
CCOCc1nc2c(N)nc3ccccc3c2n1C[C@@H](C)O[P@@](=O)(N[C@@H](C)C(=O)OC(C)C)Oc1ccccc1C (single isomer, unassigned) [Example 7A]	0.213	> 30
CCOCc1nc2c(N)nc3ccccc3c2n1C[C@@H](C)O[P@](=O)(N[C@@H](C)C(=O)OC(C)C)Oc1ccccc1C (single isomer, unassigned) [Example 7B]	0.041	> 30
CCOCc1nc2c(N)nc3ccccc3c2n1C[C@@H](C)O[P@@](=O)(N[C@@H](C)C(=O)OC(C)C)Oc1cccc(C)c1 (single isomer, unassigned) [Example 8A]	0.036	> 30
CCOCc1nc2c(N)nc3ccccc3c2n1C[C@@H](C)O[P@](=O)(N[C@@H](C)C(=O)OC(C)C)Oc1cccc(C)c1 (single isomer, unassigned) [Example 8B]	0.065	> 30
CCOCc1nc2c(N)nc3ccccc3c2n1C[C@@H](C)O[P@](=O)(N[C@@H](C)C(=O)OC(C)C)Oc1ccc(C)cc1 (single isomer, unassigned) [Example 9B]	0.071	> 30
CCOCc1nc2c(N)nc3ccccc3c2n1C[C@@H](C)O[P@@](=O)(N[C@@H](C)C(=O)OC(C)C)Oc1ccccc1Cl (single isomer, unassigned) [Example 10A]	0.034	> 30
CCOCc1nc2c(N)nc3ccccc3c2n1C[C@@H](C)OP(=O)(N[C@@H](C)C(F)(F)F)Oc1ccccc1 (single isomer, unassigned) [Example 24A]	> 30	–
CCOCc1nc2c(N)nc3ccccc3c2n1C[C@@H](C)OP(=O)(N[C@H](C(=O)OC(C)(C)C)C(C)C)Oc1ccc(Cl)cc1 (stereo partly shown) [Example 22]	1.82	–
CCOCc1nc2c(N)nc3ccccc3c2n1C[C@@H](C)O[P@@](=O)(N[C@@H](C)C(C)C)Oc1ccc(Cl)cc1 [Example 23A, (R)-1-(4-amino-2-(ethoxymethyl)-1H-imidazo [4,5-c]quinolin-1-yl) propan-2-yl (4-chlorophenyl) (S)—((S)-3-methylbutan-2-yl) phosphoramide]	> 30	–
CCOCc1nc2c(N)nc3ccccc3c2n1C[C@@H](C)O[P@](=O)(N[C@@H](C)C(C)C)Oc1ccc(Cl)cc1 [Example 23B, (R)-1-(4-amino-2-(ethoxymethyl)-1H-imidazo [4,5-c]quinolin-1-yl) propan-2-yl (4-chlorophenyl) (R)—((S)-3-methylbutan-2-yl) phosphoramide]	18	–
CCOCc1nc2c(N)nc3ccccc3c2n1C[C@@H](C)O[P@](=O)(N[C@@H](C)C(F)(F)F)Oc1ccc(Cl)cc1 [Example 24B, (R)-1-(4-amino-2-(ethoxymethyl)-1H-imidazo [4,5-c]quinolin-1-yl) propan-2-yl (4-chlorophenyl) (R)—((S)-1,1,1-trifluoropropan-2-yl) phosphoramide]	> 30	–
CCOCc1nc2c(N)nc3ccccc3c2n1C[C@@H](C)O[P@@](=O)(N[C@@H](C)COC)Oc1ccc(Cl)cc1 [Example 25A, (R)-1-(4-amino-2-(ethoxymethyl)-1H-imidazo [4,5-c]quinolin-1-yl) propan-2-yl (4-chlorophenyl) (S)—((S)-1-methoxypropan-2-yl) phosphoramide]	> 30	–
CCOCc1nc2c(N)nc3ccccc3c2n1C[C@@H](C)O[P@](=O)(N[C@@H](C)COC)Oc1ccc(Cl)cc1 [Example 25B, (R)-1-(4-amino-2-(ethoxymethyl)-1H-imidazo [4,5-c]quinolin-1-yl) propan-2-yl (4-chlorophenyl) (R)—((S)-1-methoxypropan-2-yl) Phosphoramide]	> 30	–
CCOCc1nc2c(N)nc3ccccc3c2n1CC(C)(C)O [Example R848, reference compound]	–	> 10
